For seven molecules, IC50, inhibition and Activity results are on record in ChEMBL document CHEMBL6120974, “Hydrazide-Based Class I Selective HDAC Inhibitors Completely Reverse Chemoresistance Synergistically in Platinum-Resistant Solid Cancer Cells” (J Med Chem, 2024).

Activity calls are given as the source filed them. The calls are words filed in the database; no cut-off is given here.

Assay [1] has as its system A2780. Kind of assay: cells. The following applies: Homo sapiens, A2780, 72 h.
Description: Cytotoxicity against human A2780 cells assessed as reduction in cell viability incubated for 72 hrs by MTT assay
For assay [2], the target named is T1, Protein deacetylase HDAC6 (Homo sapiens) (UniProt Q9UBN7).
T1 sequence (whole entry): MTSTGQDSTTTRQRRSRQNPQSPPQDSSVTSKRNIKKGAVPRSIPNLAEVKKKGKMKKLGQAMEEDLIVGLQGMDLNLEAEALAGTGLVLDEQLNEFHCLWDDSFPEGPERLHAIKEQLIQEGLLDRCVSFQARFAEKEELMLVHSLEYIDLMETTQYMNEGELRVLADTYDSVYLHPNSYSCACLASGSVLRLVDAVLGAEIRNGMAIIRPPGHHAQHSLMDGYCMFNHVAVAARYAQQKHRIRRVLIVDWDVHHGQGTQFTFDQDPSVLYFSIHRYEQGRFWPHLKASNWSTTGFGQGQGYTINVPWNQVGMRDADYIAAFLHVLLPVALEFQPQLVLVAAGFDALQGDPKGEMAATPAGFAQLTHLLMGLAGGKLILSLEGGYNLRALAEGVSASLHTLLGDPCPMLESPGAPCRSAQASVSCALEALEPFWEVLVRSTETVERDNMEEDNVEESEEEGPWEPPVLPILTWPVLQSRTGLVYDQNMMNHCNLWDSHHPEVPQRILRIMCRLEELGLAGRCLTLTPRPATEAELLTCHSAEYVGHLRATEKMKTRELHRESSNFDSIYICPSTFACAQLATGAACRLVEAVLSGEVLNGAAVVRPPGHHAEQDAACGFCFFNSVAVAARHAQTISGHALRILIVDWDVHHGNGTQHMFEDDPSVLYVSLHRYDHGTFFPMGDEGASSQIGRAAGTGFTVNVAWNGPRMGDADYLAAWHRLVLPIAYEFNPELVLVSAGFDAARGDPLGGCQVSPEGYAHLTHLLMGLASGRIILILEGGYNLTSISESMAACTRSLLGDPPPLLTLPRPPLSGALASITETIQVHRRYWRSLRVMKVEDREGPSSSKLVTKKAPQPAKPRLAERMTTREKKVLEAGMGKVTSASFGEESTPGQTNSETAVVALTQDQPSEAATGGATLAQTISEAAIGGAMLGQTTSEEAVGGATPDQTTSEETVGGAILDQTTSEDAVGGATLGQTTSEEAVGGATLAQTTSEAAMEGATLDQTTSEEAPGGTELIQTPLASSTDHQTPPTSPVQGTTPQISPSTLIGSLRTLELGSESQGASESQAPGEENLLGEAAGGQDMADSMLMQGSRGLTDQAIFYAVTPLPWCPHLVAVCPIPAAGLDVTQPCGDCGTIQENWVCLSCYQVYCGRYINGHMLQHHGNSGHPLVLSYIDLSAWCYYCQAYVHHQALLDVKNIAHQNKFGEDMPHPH
Kind of assay: Inhibition of N-terminal GST-tagged full length recombinant human HDAC6 (1 to 1215 end residues) expressed in sf9 cells at > 10 uM using ZMAL (Z-Lys(Ac)-AMC as fluorogenic substrate preincubated with compound for 60 mins followed by substrate addition and measured after 90 mins by fluorescence based microplate reader analysis relative to control. The following applies: time 150.0 min.

Assay [3] can be described thus: cells. The following applies: Homo sapiens, A2780cisR.
Description: Inhibition of class I/6 HDAC (unknown origin) in cisplatin resistant human A2780 cisR cells using Boc-Lys(epsilon-Ac)-AMC as substrate preincubated with compound for 18 hrs followed by substrate addition and measured after 3 hrs by NOVOstar microplate reader analysis
The test system of assay [4] is CAL-27. Kind of assay: cells. The following applies: Homo sapiens, CAL-27, 72 h.
Description: Cytotoxicity against human CAL-27 cells assessed as reduction in cell viability incubated for 72 hrs by MTT assay
The test system of assay [5] is A2780cisR. Kind of assay: cells. The following applies: Homo sapiens, 72 h.
The target in assay [6] is T2, Protein deacetylase HDAC6 (Homo sapiens, UniProt Q9UBN7).
T2 sequence (Q9UBN7 whole entry): T1 sequence (whole entry)
As to the kind of experiment: Inhibition of N-terminal GST-tagged full length recombinant human HDAC6 (1 to 1215 end residues) expressed in sf9 cells using ZMAL (Z-Lys(Ac)-AMC as fluorogenic substrate preincubated with compound for 60 mins followed by substrate addition and measured after 90 mins by fluorescence based microplate reader analysis.

A short description of assay [7]: cells. The following applies: Homo sapiens, A2780.
Description: Inhibition of class I/6 HDAC (unknown origin) in human A2780 cells using Boc-Lys(epsilon-Ac)-AMC as substrate preincubated with compound for 18 hrs followed by substrate addition and measured after 3 hrs by NOVOstar microplate reader analysis
Assay [8] in a line: cells. The following applies: Homo sapiens, CAL-27.
Description: Inhibition of class I/6 HDAC (unknown origin) in human CAL-27 cells using Boc-Lys(epsilon-Ac)-AMC as substrate preincubated with compound for 18 hrs followed by substrate addition and measured after 3 hrs by NOVOstar microplate reader analysis
A short description of assay [9]: cells. The following applies: Homo sapiens, Cal27CisR.
Description: Inhibition of class I/6 HDAC (unknown origin) in cisplatin resistant human Cal27CisR cells using Boc-Lys(epsilon-Ac)-AMC as substrate preincubated with compound for 18 hrs followed by substrate addition and measured after 3 hrs by NOVOstar microplate reader analysis
The nature of assay [10]: cells. The following applies: Homo sapiens, Cal27CisR, 72 h.
Description: Cytotoxicity against cisplatin resistant human Cal27CisR cells assessed as reduction in cell viability incubated for 72 hrs by MTT assay
Assay [11] concerns the target Histone deacetylase 3/Nuclear receptor corepressor 2 (HDAC3/NCoR2) (Homo sapiens, UniProt O15379). In kind it is cell-based, Sf9.
Assay [12] deals with Histone deacetylase 4 (Homo sapiens, UniProt P56524). Kind of assay: Inhibition of recombinant HDAC4 (unknown origin) using Bos-Lys(TFA)-AMC as substrate preincubated with compound for 5 mins and measured after 90 mins by NOVOstar microplate reader analysis.
The nature of assay [13]: cells. The following applies: Homo sapiens, A2780. This is another data set of the same source.
Description: Inhibition of class IIa/8 HDAC (unknown origin) in human A2780 cells using Boc-Lys(TFA)-AMC as substrate preincubated with compound for 18 hrs followed by substrate addition and measured after 3 hrs by NOVOstar microplate reader analysis
Assay [14] has as its target T3, Histone deacetylase 8 (Homo sapiens, UniProt Q9BY41).
T3 sequence (Q9BY41 whole entry): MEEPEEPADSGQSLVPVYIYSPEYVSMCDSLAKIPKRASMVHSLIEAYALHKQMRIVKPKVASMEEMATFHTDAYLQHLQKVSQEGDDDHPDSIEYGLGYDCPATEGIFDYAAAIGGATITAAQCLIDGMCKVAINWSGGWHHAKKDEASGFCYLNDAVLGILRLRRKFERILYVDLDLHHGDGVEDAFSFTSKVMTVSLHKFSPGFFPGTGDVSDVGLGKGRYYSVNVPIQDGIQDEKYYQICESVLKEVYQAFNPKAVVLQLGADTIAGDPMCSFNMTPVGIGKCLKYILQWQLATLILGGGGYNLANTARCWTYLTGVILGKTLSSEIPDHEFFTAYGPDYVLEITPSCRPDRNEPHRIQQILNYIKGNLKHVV
As to the kind of experiment: Inhibition of recombinant HDAC8 (unknown origin) using Bos-Lys(TFA)-AMC as substrate preincubated with compound for 5 mins and measured after 90 mins by NOVOstar microplate reader analysis.

Assay [15] can be described thus: cells. The following applies: Homo sapiens, Cal27CisR. The source holds these as a separate data set.
Description: Inhibition of class IIa/8 HDAC (unknown origin) in cisplatin resistant human Cal27CisR cells using Boc-Lys(TFA)-AMC as substrate preincubated with compound for 18 hrs followed by substrate addition and measured after 3 hrs by NOVOstar microplate reader analysis
A short description of assay [16]: cells. The following applies: Homo sapiens, CAL-27. This is another data set of the same source.
Description: Inhibition of class IIa/8 HDAC (unknown origin) in human CAL-27 cells using Boc-Lys(TFA)-AMC as substrate preincubated with compound for 18 hrs followed by substrate addition and measured after 3 hrs by NOVOstar microplate reader analysis
Assay [17] can be described thus: cells. The following applies: Homo sapiens, A2780cisR. The source holds these as a separate data set.
Description: Inhibition of class IIa/8 HDAC (unknown origin) in cisplatin resistant human A2780 cisR cells using Boc-Lys(TFA)-AMC as substrate preincubated with compound for 18 hrs followed by substrate addition and measured after 3 hrs by NOVOstar microplate reader analysis
In assay [18] the target is T1, Protein deacetylase HDAC6 (Homo sapiens). Kind of assay: Inhibition of N-terminal GST-tagged full length recombinant human HDAC6 (1 to 1215 end residues) expressed in sf9 cells at > 3.33 uM using ZMAL (Z-Lys(Ac)-AMC as fluorogenic substrate preincubated with compound for 60 mins followed by substrate addition and measured after 90 mins by fluorescence based microplate reader analysis relative to control.

Assay [19] has as its target T4, Histone deacetylase 8 (Homo sapiens) (UniProt Q9BY41).
T4 sequence (whole entry): T3 sequence (Q9BY41 whole entry)
Kind of assay: Inhibition of recombinant HDAC8 (unknown origin) at > 10 uM using Bos-Lys(TFA)-AMC as substrate preincubated with compound for 5 mins and measured after 90 mins by NOVOstar microplate reader analysis relative to control. The following applies: time 95.0 min.

The subject of assay [20] is A2780. As to the kind of experiment: Cytotoxicity against human A2780 cells at < 100 uM assessed as reduction in cell viability incubated for 72 hrs by MTT assay. In kind it is functional, cell-based.
Assay [21] concerns A2780cisR. As to the kind of experiment: Cytotoxicity against cisplatin resistant human A2780 cisR cells at < 100 uM assessed as reduction in cell viability incubated for 72 hrs by MTT assay. In kind it is functional, cell-based.
In assay [22] the test system is Cal27CisR. As to the kind of experiment: Cytotoxicity against cisplatin resistant human Cal27CisR cells at < 10 uM assessed as reduction in cell viability incubated for 72 hrs by MTT assay. In kind it is functional, cell-based. Background: Tetrazolium assays rely on reduction of a dye to a coloured formazan, in cell work by metabolically active cells.

Sequence of Histone deacetylase 3/Nuclear receptor corepressor 2 (HDAC3/NCoR2) (O15379 whole entry): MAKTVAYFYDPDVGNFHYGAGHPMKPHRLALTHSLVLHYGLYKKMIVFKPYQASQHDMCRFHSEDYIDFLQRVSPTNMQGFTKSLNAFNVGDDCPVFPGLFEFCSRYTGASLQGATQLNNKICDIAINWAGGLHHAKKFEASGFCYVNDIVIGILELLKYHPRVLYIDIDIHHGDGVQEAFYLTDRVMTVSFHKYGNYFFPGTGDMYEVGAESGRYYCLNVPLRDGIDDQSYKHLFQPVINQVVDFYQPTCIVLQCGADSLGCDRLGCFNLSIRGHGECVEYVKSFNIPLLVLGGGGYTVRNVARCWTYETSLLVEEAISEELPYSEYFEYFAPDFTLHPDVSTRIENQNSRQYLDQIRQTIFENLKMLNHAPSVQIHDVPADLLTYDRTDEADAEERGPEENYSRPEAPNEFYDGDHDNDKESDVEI
Sequence of Histone deacetylase 3/Nuclear receptor corepressor 2 (HDAC3/NCoR2) (Q9Y618 whole entry, further chain): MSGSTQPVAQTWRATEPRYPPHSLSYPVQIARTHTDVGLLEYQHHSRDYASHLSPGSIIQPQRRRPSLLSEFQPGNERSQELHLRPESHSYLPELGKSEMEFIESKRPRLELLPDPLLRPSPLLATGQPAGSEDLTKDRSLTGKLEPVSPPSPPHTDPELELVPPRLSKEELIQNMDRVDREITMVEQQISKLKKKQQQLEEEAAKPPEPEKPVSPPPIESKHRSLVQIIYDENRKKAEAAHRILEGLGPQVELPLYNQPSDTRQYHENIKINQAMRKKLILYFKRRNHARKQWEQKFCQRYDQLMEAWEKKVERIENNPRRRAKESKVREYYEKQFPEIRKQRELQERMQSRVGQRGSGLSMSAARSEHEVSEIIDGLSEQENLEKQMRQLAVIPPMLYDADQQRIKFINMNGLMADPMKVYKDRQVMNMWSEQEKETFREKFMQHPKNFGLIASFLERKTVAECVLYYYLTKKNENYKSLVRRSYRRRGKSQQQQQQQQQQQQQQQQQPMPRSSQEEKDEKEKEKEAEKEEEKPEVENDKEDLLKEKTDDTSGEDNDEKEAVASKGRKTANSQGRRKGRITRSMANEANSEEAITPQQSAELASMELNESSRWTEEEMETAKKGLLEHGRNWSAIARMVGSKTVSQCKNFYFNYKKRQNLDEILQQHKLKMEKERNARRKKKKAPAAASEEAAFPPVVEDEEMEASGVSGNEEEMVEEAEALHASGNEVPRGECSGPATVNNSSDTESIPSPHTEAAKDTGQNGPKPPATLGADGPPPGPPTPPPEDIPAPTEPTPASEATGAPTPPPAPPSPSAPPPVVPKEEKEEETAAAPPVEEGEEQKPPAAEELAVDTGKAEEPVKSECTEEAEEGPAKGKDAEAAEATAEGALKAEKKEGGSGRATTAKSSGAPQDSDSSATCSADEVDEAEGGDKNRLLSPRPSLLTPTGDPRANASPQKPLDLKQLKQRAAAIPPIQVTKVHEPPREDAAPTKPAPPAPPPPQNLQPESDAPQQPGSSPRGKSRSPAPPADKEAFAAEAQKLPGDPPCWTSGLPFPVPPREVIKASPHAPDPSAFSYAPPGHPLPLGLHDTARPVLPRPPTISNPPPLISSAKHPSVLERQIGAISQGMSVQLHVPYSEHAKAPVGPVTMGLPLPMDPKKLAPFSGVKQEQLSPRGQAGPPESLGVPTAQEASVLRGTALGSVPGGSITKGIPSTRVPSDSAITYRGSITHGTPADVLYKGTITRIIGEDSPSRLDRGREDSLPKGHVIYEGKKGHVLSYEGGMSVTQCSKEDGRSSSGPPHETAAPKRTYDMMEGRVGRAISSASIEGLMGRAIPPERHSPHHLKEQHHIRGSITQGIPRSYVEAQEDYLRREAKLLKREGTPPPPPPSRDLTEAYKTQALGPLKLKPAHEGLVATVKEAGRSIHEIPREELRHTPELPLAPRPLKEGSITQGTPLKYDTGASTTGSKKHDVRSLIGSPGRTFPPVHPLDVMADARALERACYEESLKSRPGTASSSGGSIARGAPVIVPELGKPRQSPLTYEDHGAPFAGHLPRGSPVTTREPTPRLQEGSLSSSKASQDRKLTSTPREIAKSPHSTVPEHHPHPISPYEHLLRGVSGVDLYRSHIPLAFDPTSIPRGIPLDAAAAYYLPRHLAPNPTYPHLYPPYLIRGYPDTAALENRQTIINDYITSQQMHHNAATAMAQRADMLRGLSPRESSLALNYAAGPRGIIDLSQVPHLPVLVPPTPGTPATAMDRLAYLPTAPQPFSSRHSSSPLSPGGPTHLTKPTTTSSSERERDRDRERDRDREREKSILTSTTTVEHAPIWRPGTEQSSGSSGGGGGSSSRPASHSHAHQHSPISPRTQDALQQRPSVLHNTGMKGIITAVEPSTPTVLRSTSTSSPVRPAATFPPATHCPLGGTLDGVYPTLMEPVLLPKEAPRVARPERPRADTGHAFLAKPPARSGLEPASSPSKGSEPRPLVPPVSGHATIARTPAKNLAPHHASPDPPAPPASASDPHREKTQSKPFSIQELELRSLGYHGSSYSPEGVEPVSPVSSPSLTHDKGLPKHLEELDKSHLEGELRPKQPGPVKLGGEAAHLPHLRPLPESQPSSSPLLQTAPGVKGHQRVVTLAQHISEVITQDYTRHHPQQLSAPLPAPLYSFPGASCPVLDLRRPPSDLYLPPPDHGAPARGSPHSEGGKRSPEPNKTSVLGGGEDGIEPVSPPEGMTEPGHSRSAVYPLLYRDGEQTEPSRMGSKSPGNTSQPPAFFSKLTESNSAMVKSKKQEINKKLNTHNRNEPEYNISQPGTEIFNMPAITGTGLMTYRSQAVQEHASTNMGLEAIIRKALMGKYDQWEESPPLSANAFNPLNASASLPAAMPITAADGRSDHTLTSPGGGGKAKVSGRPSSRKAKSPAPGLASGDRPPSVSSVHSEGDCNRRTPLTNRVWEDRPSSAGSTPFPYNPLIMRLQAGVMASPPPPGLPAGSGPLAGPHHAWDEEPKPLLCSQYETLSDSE
Sequence of Histone deacetylase 4 (P56524 whole entry): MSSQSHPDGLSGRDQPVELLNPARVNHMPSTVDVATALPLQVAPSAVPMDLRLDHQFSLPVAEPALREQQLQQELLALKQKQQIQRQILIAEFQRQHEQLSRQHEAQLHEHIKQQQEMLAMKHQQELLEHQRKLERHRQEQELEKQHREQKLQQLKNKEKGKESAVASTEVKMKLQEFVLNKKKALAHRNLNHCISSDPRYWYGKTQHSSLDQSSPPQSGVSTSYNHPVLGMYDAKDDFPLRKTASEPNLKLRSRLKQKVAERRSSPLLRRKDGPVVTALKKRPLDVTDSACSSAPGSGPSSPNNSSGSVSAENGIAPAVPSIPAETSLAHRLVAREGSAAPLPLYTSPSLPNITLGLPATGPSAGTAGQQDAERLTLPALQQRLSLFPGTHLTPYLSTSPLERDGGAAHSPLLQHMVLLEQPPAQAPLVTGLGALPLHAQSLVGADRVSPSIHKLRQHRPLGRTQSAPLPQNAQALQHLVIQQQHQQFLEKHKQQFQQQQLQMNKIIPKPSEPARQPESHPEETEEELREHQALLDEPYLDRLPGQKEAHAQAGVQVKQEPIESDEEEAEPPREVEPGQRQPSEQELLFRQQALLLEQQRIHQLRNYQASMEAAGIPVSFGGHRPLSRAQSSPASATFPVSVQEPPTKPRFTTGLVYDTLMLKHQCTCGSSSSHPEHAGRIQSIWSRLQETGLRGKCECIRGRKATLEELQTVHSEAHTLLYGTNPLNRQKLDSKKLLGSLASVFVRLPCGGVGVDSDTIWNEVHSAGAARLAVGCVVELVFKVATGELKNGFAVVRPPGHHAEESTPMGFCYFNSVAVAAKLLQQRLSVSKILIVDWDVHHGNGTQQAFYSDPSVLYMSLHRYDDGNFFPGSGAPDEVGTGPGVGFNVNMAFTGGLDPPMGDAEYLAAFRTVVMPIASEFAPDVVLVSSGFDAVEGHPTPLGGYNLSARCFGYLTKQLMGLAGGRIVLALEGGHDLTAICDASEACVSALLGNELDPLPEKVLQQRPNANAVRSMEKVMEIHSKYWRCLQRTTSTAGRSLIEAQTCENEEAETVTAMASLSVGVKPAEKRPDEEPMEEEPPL

Regarding `CC(C)CCNNC(=O)c1ccc(CN(CC(=O)NCc2ccccc2)C(=O)c2ccc(N(C)C)cc2)cc1`, the IC50 (usually the midpoint of a concentration-inhibition curve) in assay [1] was 4.94 µM; in assay [3] it was 2.08 µM; in [4], 3.41 µM; in assay [5], 15.8 µM; in assay [6] it was more than 10 µM; in assay [7], 2.91 µM. Moreover, the IC50 in assay [8] is 0.83 µM; in [9] it was 0.931 µM; in [10], 8.5 µM; in [11], 0.199 µM; in [12], more than 10 µM. Also, in assay [2], the inhibition (in general, the change of the read-out against control, counted positive when it falls) was less than 25%.
Consider `CN(C)c1ccc(C(=O)N(CC(=O)NCc2ccccc2)Cc2ccc(C(=O)Nc3ccccc3N)cc2)cc1`, for which the IC50 in [1] was 4.33 µM; in assay [3] it was 1.63 µM; in assay [13], 49.8 µM; in assay [14] it was more than 10 µM; in assay [15], 6.47 µM; in [4], 2 µM. The IC50 was 8.28 µM in assay [5]; more than 10 µM in assay [6]; 9.34 µM in assay [16]; 1.22 µM in assay [7]; 0.327 µM in assay [8]; 47.6 µM in assay [17]. Moreover, the IC50 in [9] is 0.491 µM; in assay [10] it was 2.63 µM; in assay [12] it was more than 10 µM.
Take `CCCCCNNC(=O)c1ccc(CN(CC(=O)NCc2ccccc2)C(=O)c2ccc(N(C)C)cc2)cc1`: the IC50 in assay [1] was 0.675 µM; in assay [3] it was 0.334 µM; in assay [4], 0.843 µM; in [5], 3.38 µM; in [6], more than 3.33 µM; in assay [7] it was 0.273 µM. The IC50 was 0.264 µM in [8]; 0.218 µM in [9]; 1.5 µM in assay [10]; 0.072 µM in [11]; more than 10 µM in assay [12]. The inhibition in assay [18] is less than 25%.
Turning to `CN(C)c1ccc(C(=O)N(CC(=O)NCc2ccccc2)Cc2ccc(C(=O)NNCCC(F)(F)F)cc2)cc1`, the IC50 in [1] is 2.25 µM; in [3], 0.91 µM; in assay [14], more than 10 µM; in assay [4], 2.2 µM; in assay [5] it was 8.05 µM; in assay [6], more than 10 µM. Also, the IC50 in assay [7] is 0.691 µM; in [8], 0.379 µM; in [9], 0.385 µM; in [10], 3.14 µM; in [11] it was 0.037 µM; in assay [12] it was more than 10 µM. For the same molecule, the inhibition in [2] and in assay [19] was less than 25% in each case.
On to `CN(C)c1ccc(C(=O)N(CC(=O)NCc2ccccc2)Cc2ccc(C(=O)NNCCCc3ccccc3)cc2)cc1`, for which the IC50 in [1] was 5.9 µM; in assay [3], 2.97 µM; in [4], 10.3 µM; in assay [5] it was 35.5 µM; in [6] it was more than 10 µM; in [7], 2.21 µM. Moreover, the IC50 in [8] is 2.46 µM; in [9], 1.96 µM; in assay [10], 21.6 µM; in [11] it was 1.2 µM; in assay [12], more than 10 µM. The inhibition in assay [18] is less than 25%.
As for `CN(C)c1ccc(C(=O)N(CC(=O)NCc2ccccc2)Cc2ccc(C(=O)NNc3ccccc3)cc2)cc1`, the inhibition in assay [2] and in assay [19] was less than 25% throughout. In addition, the IC50 in assay [3] is 36 µM; in [14], more than 10 µM; in assay [4], 60.8 µM; in assay [6], more than 10 µM; in assay [7], 27.7 µM; in assay [8], 21.5 µM. Moreover, the values for the IC50 in assay [9], in [11] and in assay [12] were 24.3 µM, 3.82 µM and more than 10 µM, respectively. Further, the outcome in assay [20], in assay [21] and in assay [22] was inactive.
In the case of `CN(C)c1ccc(C(=O)N(CC(=O)NCc2ccccc2)Cc2ccc(C(=O)NNCC3CC3)cc2)cc1`, the IC50 in assay [1] came out at 2.61 µM; in assay [3], 0.974 µM; in [13] it was 8.56 µM; in assay [15], 1.28 µM; in assay [4], 1.99 µM; in assay [5], 9.08 µM. Further, the IC50 in assay [6] is more than 10 µM; in assay [16] it was 2.97 µM; in [7], 0.722 µM; in [8], 0.388 µM; in assay [17] it was 11.9 µM; in assay [9], 0.392 µM. For the same molecule, the IC50 in [10] was 2.67 µM; in [12], more than 10 µM. The inhibition in [2] was less than 25%.
